We go through eight compounds from patent US9784752B2, “Venlafaxine assay” (Randox Laboratories, Limited, priority 2012, dated 2017).

The experiment has as its system polyclonal antibody raised to Immunogen II. The experiment in a line: Competitive biochip immunoassay (Evidence Investigator) with Hapten-1 HRP detecting agent. The class given is binding, sheep. To be noted: for % Cross-reactivity: %CR calculated from IC50 ratio x 100; for IC50: concentration causing 50% displacement of signal, competition with Hapten-1 HRP for immobilised polyclonal antibody, 30 minutes at 30° C. The procedure:
A semi-automated Evidence Investigator analyser (Randox Laboratories Ltd., Crumlin, UK) was used as the platform for a biochip assay for the detection of venlafaxine and O-desmethylvenlafaxine. Immunogen II was administered to adult sheep on a monthly basis to provide target-specific polyclonal antisera. IgG was extracted from the antisera, and the purified antibody was immobilised on a biochip (9 mm×9 mm). The assay is based on competition for binding sites of a polyclonal antibody between Hapten-1HRP detecting agent (Example 10) and venlafaxine and O-desmethylvenlafaxine and potential cross-reactants. The antibody was immobilised and stabilised onto the biochip surface as previously described (Fitzgerald et al., 2005). Assay diluent (155 μL), calibrator/venlafaxine and O-desmethylvenlafaxine or potential cross-reactant (25 μL) followed by Hapten-1 HRP detecting agent (120 μL) were added to the appropriate biochip. The biochips were then incubated for 30 minutes at 30° C. on a thermoshaker set at 370 rpm. The biochips were then subjected to 2 quick wash cycles using the wash buffer provided, followed by 4×2 minute wash cycles. 250 μL of signal (1:1 luminol+peroxide, v/v) was then added to each biochip, and after 2 minutes the biochip carrier was imaged in the Evidence Investigator analyser. Calibration curves were generated and these were used to determine the sensitivity and specificity of the immunoassay for venlafaxine, O-desmethylvenlafaxine and potential cross-reactants.
Table 1, cross-reactivity being calculated according to the following formula: %CR=IC50,O-desmethylvenlafaxine/IC50,CR×100 where % CR is the percentage cross-reactivity, IC50, O-desmethylvenlafaxine is the concentration of O-desmethylvenlafaxine which causes 50% displacement of signal and IC50, CR is the concentration of venlafaxine or potential cross-reactant that causes 50% displacement of signal.

Molecules are shown by their SMILES. Values after ≈ are worked out from the molar mass of the structure shown.

The IC50 is the point on the concentration scale where inhibition reaches its midpoint. Low readings indicate inhibition by little substance, high ones a need for much substance. Take `CN(C)C[C@H]1CCCC[C@]1(O)c1cccc(O)c1` [O-Desmethyltramadol]: the “% Cross-reactivity” value is given as below 5.7% and the “IC50” value is above 320 ng/mL. For the compound `CCOC(=O)C1(c2ccccc2)CCN(C)CC1` [Meperidine], the “% Cross-reactivity” value was below 5.7%. On to `COc1ccc(C(CN(C)C)C2(O)CCCCC2)cc1` (racemic) [Venlafaxine, (RS)-1-[2-(dimethylamino)-1-(4-methoxyphenyl)ethyl]cyclohexanol], for which the “% Cross-reactivity” value was 100% and the “IC50” value amounted to 18.31 ng/mL (≈ 0.066 µM). As for `COc1cccc(C2(O)CCCCC2CN(C)C)c1` (centres unmarked) [Tramadol], the “% Cross-reactivity” value is below 5.7%. With `COC(=O)C(c1ccccc1)C1CCCCN1` (centres unmarked) [Methylphenidate], the “% Cross-reactivity” value was below 5.7% and the “IC50” value was above 320 ng/mL.

For the compound `c1ccc(C2(N3CCCCC3)CCCCC2)cc1` [PCP], the “% Cross-reactivity” value is given as below 5.7% and the “IC50” value was above 320 ng/mL. Regarding `CN(C)CC(c1ccc(O)cc1)C1(O)CCCCC1` (racemic) [O-Desmethylvenlafaxine, (RS)-1-[2-(dimethylamino)-1-(4-hydroxyphenyl)ethyl]cyclohexanol], the “% Cross-reactivity” value is recorded as 48.4% and the “IC50” value came to 37.86 ng/mL (≈ 0.144 µM). As to `CNCC1CCCCC1(O)c1cccc(OC)c1` (centres unmarked) [N-Desmethyltramadol], the “% Cross-reactivity” value is on record as below 5.7% and the “IC50” value was above 320 ng/mL.
